Biological target: T1, Type II 5α-reductase from human prostate (Homo sapiens, UniProt P31213)
T1 construct: Human prostate tissue from prostate surgeries was obtained immediately after surgery, frozen on dry ice; from tissue; host or cells: human prostate tissue from surgery; homogenate, 100,000 x g pellet resuspended
T1 sequence (P31213 1-254): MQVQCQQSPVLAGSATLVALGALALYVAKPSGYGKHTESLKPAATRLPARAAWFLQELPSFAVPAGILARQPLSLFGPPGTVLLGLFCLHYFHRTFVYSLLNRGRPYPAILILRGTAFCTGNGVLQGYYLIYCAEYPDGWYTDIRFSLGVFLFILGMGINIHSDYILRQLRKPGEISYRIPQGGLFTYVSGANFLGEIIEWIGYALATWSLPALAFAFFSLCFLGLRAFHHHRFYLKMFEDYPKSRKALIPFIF
Assay: Human Type II steroid 5α-reductase assay (conversion of [3H]-testosterone to DHT)
Type: biochemical
Conditions: human prostate enzyme preparation, 50 nM [3H]-testosterone, pH 5.5, 30 min at 25°, compared to control reaction mixtures; read-out: 50% inhibitory concentration
Protocol: Methodology of Human Type II Steroid 5α-Reductase Assays
Preparation of Type II 5α-Reductase from Human Prostate:
Human prostate tissue from prostate surgeries was obtained immediately after surgery, frozen on dry ice and stored at -80° C. The tissue was frozen with liquid nitrogen and pulverized to powder. The powder was homogenized in ice-cold buffer (20 mM sodium phosphate, pH 6.5) using a Brinkmann Polvtron (Westbury, N.Y.) with a PTA 10-S probe and a setting of 7. The homogenization procedure consisted of four 15 second pulses. Connective tissue was cleared from the probe with forceps between pulses. […]
This enzyme assay is based on the conversion of [^3 H]-testosterone to [^3 H]-5α-dihydrotestosterone (DHT) and other 5α-reduced metabolites. […] Essentially no androsterone was detected. […]
The [^3 H]-testosterone substrate and its metabolites were separated by chromatography using a C-18 reversed phase column (Beckman Ultrasphere 5 μm spherical 80A pore, part no. 235329, 4.6 mm i.d..div.25 mm length) with an isocratic mobile phase (46 water: 46 methanol: 8 tetrahydrofuran by volume). […] A 400 μl aliquot was injected onto the column and radioactivity was determined using a Beckman 171 in-line flow radioisotope detector in conjunction with Rainin Dynamax™ software and a Macintosh computer. […]

| SMILES | IC50 [nM] |
| --- | --- |
| C[C@]12CCC(C(=O)O)=CC1=CCc1cc(Cl)ccc12 [Example 1, (-)-2-Chloro-4b-methyl-4b,5,6,10-tetrahydrophenanthrene-7-carboxylic acid] | 150 |
| C[C@]12CCC(c3nnn[nH]3)=CC1=CCc1cc(Cl)ccc12 [Example 2, (-)-2-Chloro-4b-methyl-4b,5,6,10-tetrahydrophenanthrene-7-(1-tetrazole)] | 600 |
